Measured values from US20070197538A1, “Anti-vascular and anti-proliferation methods, therapies, and combinations employing specific tyrosine kinase inhibitors” (priority 2004, published 2007).
Entries after “also recorded” stand apart in the source; their conditions may differ. Counter-ions that a name gives are not always drawn.

Tests used:
MV4;11 or RS4;11 cells = experiment: subcutaneous MV4;11 or RS4;11 tumors in athymic nu/nu mice; type: in vivo; conditions: oral, daily or 3 times per week, 50-200 mg/kg, pre-existing tumors
Protocol: Animals are randomized into treatment groups of 15 mice each for efficacy studies. […] Tumor growth is measured twice weekly using Vernier calipers for the duration of the treatment. Tumor volumes are calculated as the product of length x width x height. On completion of the experiments, mice are sacrificed and tumors are harvested for determination of FLT3 and phosphorylated FLT3 in tumor lysates by immunoprecipitation and Western-blot.

VEGF-R2 = molecular target: T1, VEGF-R2 (Homo sapiens, UniProt P35968); experiment: recombinant kinase transphosphorylation (33P-ATP) profiling, VEGF-R2; type: biochemical; conditions: 10 concentrations, n=1
T1 construct: host or cells: baculovirus system
Protocol: (§1) The ability of a set of protein kinases—tyrosine and serine/threonine kinases expressed in a baculovirus system—to incorporate ^33P (from ^33P-ATP) in relevant substrates, in the presence of decreasing concentrations of the inhibitor (10 concentrations from 10^−5 to 3.10^−10, n=1) was determined.

Abl-1 = molecular target: T2, Abl-1 (Homo sapiens, UniProt P00519); experiment: recombinant kinase transphosphorylation (33P-ATP) profiling, Abl-1; type: biochemical; conditions: 10 concentrations, n=1
T2 construct: host or cells: baculovirus system
Protocol: as §1

[1] = tested on: MAPK, P13K and STAT5 pathways; experiment: FLT3 downstream signaling phosphorylation in AML FLT3-ITD cell lines; type: cell-based; conditions: immunoprecipitations/western blot
[2] = tested on: protein kinases belonging to families different from the tyrosine kinase family; experiment: kinase profiling, protein kinases outside the tyrosine kinase family; type: biochemical
Flt-3 = molecular target: T3, Flt-3 (Homo sapiens, UniProt P36888); experiment: recombinant kinase transphosphorylation (33P-ATP) profiling, Flt-3; type: biochemical; conditions: 10 concentrations, n=1
T3 construct: host or cells: baculovirus system

Eph-B4 = molecular target: T4, Eph-B4 (Homo sapiens, UniProt P54760); experiment: recombinant kinase transphosphorylation (33P-ATP) profiling, Eph-B4; type: biochemical; conditions: 10 concentrations, n=1
T4 construct: host or cells: baculovirus system
Protocol: as §1

VEGF-R1 = molecular target: T5, VEGF-R1 (Homo sapiens, UniProt P17948); experiment: recombinant kinase transphosphorylation (33P-ATP) profiling, VEGF-R1; type: biochemical; conditions: 10 concentrations, n=1
T5 construct: host or cells: baculovirus system
Protocol: as §1

[3] = tested on: AML193 cells (wild type FLT3); experiment: AML193 cell growth, luminescence assay at 72 hours; conditions: with or without 100 ng/mL FLT3 ligand, GN963 at concentrations used (30 μM), FIGS. 3 and 4
Kit = molecular target: T6, Kit (Homo sapiens, UniProt P10721); experiment: recombinant kinase transphosphorylation (33P-ATP) profiling, Kit; type: biochemical; conditions: 10 concentrations, n=1
T6 construct: host or cells: baculovirus system

Irak = experiment: recombinant kinase transphosphorylation (33P-ATP) profiling, Irak; type: biochemical; conditions: 10 concentrations, n=1
Met = molecular target: T7, Met (Homo sapiens, UniProt P08581); experiment: recombinant kinase transphosphorylation (33P-ATP) profiling, Met; type: biochemical; conditions: 10 concentrations, n=1
T7 construct: host or cells: baculovirus system
Protocol: as §1

MOLM-13 cells (FLT3-ITD) = experiment: MOLM-13 cell growth, luminescence assay at 72 hours; type: cell-based
Excerpt: Staurosporine, a non specific kinase inhibitor, is used as positive control.

FGF-R1 = molecular target: T8, FGF-R1 (Homo sapiens, UniProt P11362); experiment: recombinant kinase transphosphorylation (33P-ATP) profiling, FGF-R1; type: biochemical; conditions: 10 concentrations, n=1
T8 construct: host or cells: baculovirus system
Protocol: as §1

[4] = tested on: RS4-11 cells (FLT3-wild type); experiment: RS4-11 cell growth, luminescence assay at 72 hours; type: cell-based, human; conditions: with or without 100 ng/mL FLT3 ligand, FIGS. 5 and 6
L3.6 pL pancreatic tumor = experiment: orthotopic human pancreatic cancer L3.6 pL in nude mice; type: in vivo
Protocol: A pancreatic tumor which is shown to upregulate expression of PDGF AA, BB, A/B at metastatic sites is used for the in vivo studies. Other tumor systems that are known to upregulate expression of PDGF may also be used such as ovarian cancer, prostate cancer, bone metastasis, or breast cancer bone metastasis.
Tumor cells L3.6 pL derived from pancreatic cancer are injected into the pancreas of nude mice. The tumors are grown into detectable lesions.
Two days later, the mice are killed and the organs with and without tumors harvested, fixed, and immunostained to evaluate expression of PDGF AA, BB, A/B, PDGF-R (α,β) and status of phosphorylation of PDGF-R (α,β) on tumor cells and organ-specific endothelial cells.
The surviving mice are then killed and the size of tumor and metastasis is measured. Fixation of the tissues and staining of the tumor cells are performed. Endothelial cells are examined for division (PCNA), apoptosis (TUNEL), CD31 (endothelial cells). Expression of PDGF AA, BB, A/B, and phosphorylation of PDGF-Rα/β are further studied in these endothelial cells.

MV4-11 and MOLM-13 cells = experiment: apoptosis by annexin V-FITC / propidium iodide flow cytometry; type: cell-based; conditions: 48 to 72 hours incubation
Protocol: Apoptosis was evaluated by means of flow cytometry to measure cellular binding of an annexin V-FITC conjugate as well as uptake of the vital stain propidium iodide.

FGF-R4 = molecular target: T9, FGF-R4 (Homo sapiens, UniProt P22455); experiment: recombinant kinase transphosphorylation (33P-ATP) profiling, FGF-R4; type: biochemical; conditions: 10 concentrations, n=1
T9 construct: host or cells: baculovirus system
Protocol: as §1

FLT3-ITD = experiment: cellular FLT3 phosphorylation, immunoprecipitation/western blot; conditions: immunoprecipitations/western blot
Src = molecular target: T10, Src (Homo sapiens, UniProt P12931); experiment: recombinant kinase transphosphorylation (33P-ATP) profiling, Src; type: biochemical; conditions: 10 concentrations, n=1
T10 construct: host or cells: baculovirus system

[5] = tested on: Mouse endothelial cells from pancreas; experiment: sensitivity of pancreas endothelial cells to Taxotere cytotoxicity; type: cell-based; conditions: with Taxotere
Protocol: Mouse endothelial cells from pancreas are maintained in culture at a temperature 33° C. where they are actively dividing.

IGF1-R = molecular target: T11, IGF1-R (Homo sapiens, UniProt P08069); experiment: recombinant kinase transphosphorylation (33P-ATP) profiling, IGF1-R; type: biochemical; conditions: 10 concentrations, n=1
T11 construct: host or cells: baculovirus system
Protocol: as §1

MV4-11 cells (FLT3-ITD) = experiment: MV4-11 cell growth, luminescence assay at 72 hours; type: cell-based, human
Excerpt: Staurosporine, a non specific kinase inhibitor, was used as positive control.

MV4;11 cells = experiment: intravenous MV4;11 leukemia model in NOD-SCID mice; type: in vivo
Protocol: In a subset of animals, bone marrow cell suspensions are prepared by flushing mouse femurs with cold sterile PBS, at experimental timepoints (within 90 days of implantation).

FGR = molecular target: T12, FGR (Homo sapiens, UniProt P09769); experiment: recombinant kinase transphosphorylation (33P-ATP) profiling, FGR; type: biochemical; conditions: 10 concentrations, n=1
T12 construct: host or cells: baculovirus system
Protocol: as §1

Ins-R = molecular target: T13, Ins-R (Homo sapiens, UniProt P06213); experiment: recombinant kinase transphosphorylation (33P-ATP) profiling, Ins-R; type: biochemical; conditions: 10 concentrations, n=1
T13 construct: host or cells: baculovirus system

EGF-R = molecular target: T14, EGF-R (Homo sapiens, UniProt P00533); experiment: recombinant kinase transphosphorylation (33P-ATP) profiling, EGF-R; type: biochemical; conditions: 10 concentrations, n=1
T14 construct: host or cells: baculovirus system

Lck = molecular target: T15, Lck (Homo sapiens, UniProt P06239); experiment: recombinant kinase transphosphorylation (33P-ATP) profiling, Lck; type: biochemical; conditions: 10 concentrations, n=1
T15 construct: host or cells: baculovirus system

Brk = molecular target: T16, Brk (Homo sapiens, UniProt Q13882); experiment: recombinant kinase transphosphorylation (33P-ATP) profiling, Brk; type: biochemical; conditions: 10 concentrations, n=1
T16 construct: host or cells: baculovirus system
Protocol: as §1

PDGFRa = molecular target: T17, PDGFRa (Homo sapiens, UniProt P16234); experiment: recombinant kinase transphosphorylation (33P-ATP) profiling, PDGFRa; type: biochemical; conditions: 10 concentrations, n=1
T17 construct: host or cells: baculovirus system

PDGFRb = molecular target: T18, PDGFRb (Homo sapiens, UniProt P09619); experiment: recombinant kinase transphosphorylation (33P-ATP) profiling, PDGFRb; type: biochemical; conditions: 10 concentrations, n=1
T18 construct: host or cells: baculovirus system

T9 sequence (P22455 22-802): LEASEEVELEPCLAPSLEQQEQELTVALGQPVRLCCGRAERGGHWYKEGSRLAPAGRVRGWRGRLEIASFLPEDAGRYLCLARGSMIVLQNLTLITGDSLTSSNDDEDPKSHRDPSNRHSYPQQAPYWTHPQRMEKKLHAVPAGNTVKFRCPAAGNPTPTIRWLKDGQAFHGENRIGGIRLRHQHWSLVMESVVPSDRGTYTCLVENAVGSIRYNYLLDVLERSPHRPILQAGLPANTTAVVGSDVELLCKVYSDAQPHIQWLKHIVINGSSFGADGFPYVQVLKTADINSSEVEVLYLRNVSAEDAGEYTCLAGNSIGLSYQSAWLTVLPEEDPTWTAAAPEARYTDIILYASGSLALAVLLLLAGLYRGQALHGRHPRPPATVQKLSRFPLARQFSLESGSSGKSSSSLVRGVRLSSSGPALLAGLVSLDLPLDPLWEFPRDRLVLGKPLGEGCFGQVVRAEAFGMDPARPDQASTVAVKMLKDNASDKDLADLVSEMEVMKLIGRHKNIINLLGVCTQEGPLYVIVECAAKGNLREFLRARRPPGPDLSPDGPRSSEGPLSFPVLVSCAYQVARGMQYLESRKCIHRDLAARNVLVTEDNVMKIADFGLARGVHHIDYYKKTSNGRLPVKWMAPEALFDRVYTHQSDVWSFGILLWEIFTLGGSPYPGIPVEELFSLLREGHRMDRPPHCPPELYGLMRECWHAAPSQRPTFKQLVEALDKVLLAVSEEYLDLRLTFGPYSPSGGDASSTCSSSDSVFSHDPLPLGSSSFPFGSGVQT
T4 sequence (P54760 16-987): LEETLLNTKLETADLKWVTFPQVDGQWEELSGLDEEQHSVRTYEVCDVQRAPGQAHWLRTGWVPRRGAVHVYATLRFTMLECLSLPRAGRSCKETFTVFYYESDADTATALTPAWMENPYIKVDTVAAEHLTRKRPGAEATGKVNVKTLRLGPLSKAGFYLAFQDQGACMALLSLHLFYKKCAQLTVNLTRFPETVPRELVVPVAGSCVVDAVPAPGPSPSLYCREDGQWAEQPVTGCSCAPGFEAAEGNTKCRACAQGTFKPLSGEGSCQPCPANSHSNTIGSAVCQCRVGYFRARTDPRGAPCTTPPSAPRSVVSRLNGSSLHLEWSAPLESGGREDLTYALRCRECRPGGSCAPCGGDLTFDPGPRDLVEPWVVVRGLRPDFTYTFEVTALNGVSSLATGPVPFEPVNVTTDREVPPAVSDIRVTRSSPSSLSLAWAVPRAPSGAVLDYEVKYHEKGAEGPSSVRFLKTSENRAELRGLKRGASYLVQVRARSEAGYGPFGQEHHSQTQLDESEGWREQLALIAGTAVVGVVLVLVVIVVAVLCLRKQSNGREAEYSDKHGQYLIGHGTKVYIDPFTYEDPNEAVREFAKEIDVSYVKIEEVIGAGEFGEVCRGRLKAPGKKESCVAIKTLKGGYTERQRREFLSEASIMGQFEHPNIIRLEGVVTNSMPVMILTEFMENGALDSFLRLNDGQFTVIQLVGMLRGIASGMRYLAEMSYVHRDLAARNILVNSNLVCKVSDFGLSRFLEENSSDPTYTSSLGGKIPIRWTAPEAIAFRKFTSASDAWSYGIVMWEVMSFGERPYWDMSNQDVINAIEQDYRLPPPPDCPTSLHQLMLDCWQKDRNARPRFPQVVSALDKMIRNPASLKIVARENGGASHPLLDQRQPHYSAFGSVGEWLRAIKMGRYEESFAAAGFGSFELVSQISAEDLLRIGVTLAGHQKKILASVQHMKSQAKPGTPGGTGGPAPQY
T8 sequence (P11362 22-822): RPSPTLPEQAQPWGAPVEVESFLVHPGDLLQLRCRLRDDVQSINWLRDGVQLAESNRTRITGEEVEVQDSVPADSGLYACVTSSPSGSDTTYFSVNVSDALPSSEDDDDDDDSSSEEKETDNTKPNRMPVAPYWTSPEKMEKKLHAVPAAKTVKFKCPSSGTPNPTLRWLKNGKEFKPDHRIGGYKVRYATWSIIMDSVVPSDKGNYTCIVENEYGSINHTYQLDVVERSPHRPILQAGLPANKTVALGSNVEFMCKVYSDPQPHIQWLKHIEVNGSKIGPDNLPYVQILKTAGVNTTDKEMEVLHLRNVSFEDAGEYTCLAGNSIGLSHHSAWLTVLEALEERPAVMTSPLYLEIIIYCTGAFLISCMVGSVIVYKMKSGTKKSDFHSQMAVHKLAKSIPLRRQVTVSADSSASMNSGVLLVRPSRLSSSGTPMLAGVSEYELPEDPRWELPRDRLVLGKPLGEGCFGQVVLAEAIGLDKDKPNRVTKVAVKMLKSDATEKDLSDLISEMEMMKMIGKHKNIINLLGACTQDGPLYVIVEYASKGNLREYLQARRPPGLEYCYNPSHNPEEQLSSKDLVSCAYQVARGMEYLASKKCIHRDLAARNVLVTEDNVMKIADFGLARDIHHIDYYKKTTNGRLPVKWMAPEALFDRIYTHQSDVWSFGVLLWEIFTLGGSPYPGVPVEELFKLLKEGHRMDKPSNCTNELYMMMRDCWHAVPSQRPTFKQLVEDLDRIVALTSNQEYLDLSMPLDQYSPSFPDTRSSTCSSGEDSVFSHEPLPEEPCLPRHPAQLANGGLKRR
T3 sequence (P36888 27-993): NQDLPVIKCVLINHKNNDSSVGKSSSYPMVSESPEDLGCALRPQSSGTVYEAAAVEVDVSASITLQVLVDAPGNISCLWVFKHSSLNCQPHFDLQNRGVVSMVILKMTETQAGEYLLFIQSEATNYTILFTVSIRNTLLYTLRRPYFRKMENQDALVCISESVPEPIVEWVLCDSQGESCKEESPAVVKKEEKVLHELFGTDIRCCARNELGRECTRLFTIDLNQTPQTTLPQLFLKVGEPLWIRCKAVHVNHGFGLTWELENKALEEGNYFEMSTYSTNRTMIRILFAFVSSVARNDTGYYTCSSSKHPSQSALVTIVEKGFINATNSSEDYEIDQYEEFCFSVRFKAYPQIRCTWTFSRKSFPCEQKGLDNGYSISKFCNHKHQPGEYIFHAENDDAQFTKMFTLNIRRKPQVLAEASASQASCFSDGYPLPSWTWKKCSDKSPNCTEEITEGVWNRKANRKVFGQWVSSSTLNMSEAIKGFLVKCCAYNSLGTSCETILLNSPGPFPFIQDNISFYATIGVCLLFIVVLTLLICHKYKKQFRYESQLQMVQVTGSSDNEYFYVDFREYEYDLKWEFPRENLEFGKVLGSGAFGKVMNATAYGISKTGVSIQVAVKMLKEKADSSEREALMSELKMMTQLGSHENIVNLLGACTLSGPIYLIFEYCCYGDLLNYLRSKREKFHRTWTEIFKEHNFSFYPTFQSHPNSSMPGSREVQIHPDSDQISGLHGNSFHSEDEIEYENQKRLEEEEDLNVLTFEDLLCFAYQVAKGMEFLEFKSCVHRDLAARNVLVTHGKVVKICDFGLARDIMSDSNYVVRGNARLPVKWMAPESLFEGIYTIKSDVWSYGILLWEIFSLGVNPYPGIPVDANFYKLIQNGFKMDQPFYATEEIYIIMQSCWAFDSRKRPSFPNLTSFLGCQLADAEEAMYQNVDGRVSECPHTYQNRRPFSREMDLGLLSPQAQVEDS
T11 sequence (P08069 31-1367): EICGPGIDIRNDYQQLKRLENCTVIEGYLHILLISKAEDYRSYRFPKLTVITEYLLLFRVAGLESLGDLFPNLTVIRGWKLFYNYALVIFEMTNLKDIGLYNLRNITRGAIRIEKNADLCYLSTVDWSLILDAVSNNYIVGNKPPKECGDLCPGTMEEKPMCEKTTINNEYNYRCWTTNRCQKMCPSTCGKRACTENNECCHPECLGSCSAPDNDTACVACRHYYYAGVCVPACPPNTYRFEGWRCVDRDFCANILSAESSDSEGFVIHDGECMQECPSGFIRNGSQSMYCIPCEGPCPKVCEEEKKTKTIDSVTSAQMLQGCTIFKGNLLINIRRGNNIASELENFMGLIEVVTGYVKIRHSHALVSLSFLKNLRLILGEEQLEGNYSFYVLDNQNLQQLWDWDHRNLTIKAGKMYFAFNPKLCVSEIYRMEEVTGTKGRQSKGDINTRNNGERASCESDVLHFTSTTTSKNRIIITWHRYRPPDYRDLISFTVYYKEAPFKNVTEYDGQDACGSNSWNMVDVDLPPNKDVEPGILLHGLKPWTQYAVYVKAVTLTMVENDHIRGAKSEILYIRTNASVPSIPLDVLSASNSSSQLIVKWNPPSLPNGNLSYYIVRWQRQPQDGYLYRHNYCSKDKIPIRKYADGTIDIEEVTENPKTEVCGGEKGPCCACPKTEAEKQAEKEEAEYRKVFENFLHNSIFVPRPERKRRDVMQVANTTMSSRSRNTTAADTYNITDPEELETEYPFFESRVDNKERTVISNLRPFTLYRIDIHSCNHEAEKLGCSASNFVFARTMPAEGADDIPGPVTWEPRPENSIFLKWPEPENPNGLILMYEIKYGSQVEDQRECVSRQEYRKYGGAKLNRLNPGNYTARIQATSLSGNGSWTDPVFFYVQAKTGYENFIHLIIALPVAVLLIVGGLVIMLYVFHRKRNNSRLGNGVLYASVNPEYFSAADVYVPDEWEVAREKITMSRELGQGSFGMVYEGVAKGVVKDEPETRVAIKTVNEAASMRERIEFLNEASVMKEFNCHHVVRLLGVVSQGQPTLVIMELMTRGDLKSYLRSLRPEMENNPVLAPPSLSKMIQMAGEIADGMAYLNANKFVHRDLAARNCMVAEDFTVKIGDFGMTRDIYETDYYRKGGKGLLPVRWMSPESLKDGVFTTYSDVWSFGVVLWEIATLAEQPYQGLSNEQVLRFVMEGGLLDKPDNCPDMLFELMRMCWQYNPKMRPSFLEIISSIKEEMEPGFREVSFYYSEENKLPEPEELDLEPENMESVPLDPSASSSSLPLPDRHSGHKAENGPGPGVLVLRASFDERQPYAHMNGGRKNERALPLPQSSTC

Question: Which results are given for `COc1cc2ncc(N[C@H]3CC[C@H](O)CC3)nc2cc1OC` [GN963, trans-4-(6,7-dimethoxy-quinoxalin-2-ylamino)-cyclohexanol sulfate]?
Answer: tumor growth (MV4;11 or RS4;11 cells): efficacy against tumor growth; IC50 (VEGF-R2): > 10000 nM; IC50 (Abl-1): 13000 nM; STAT5, MAPK and P13K phosphorylation [1]: inhibits STAT5, MAPK and P13K phosphorylation in a dose-dependent manner; phosphorylation mediated by protein kinases of families other than tyrosine kinases [2]: did not inhibit; IC50 (Flt-3): 1400 nM; IC50 (Eph-B4): 7200 nM; IC50 (VEGF-R1): > 10000 nM; effect on AML193 cell growth [3]: not inhibited; also recorded: no effect; IC50 (Kit): 7200 nM; IC50 (Irak): 4100 nM; IC50 (Met): > 10000 nM; effect on MOLM-13 cell growth (MOLM-13 cells (FLT3-ITD); 72 hours, luminescence assay, FIG. 2): dose response effect; IC50 (MOLM-13 cells (FLT3-ITD); Homo sapiens, MOLM-13, 72 h with inhibitor, Cell Titer-Glo, range stated for MV4-11 and MOLM-13 together, read-out: IC50, inhibition of cellular proliferation): 0.7 to 2 µM; IC50 (FGF-R1): > 10000 nM; effect on RS4-11 cell growth [4]: not inhibited; also recorded: no effect; survival rate (L3.6 pL pancreatic tumor; combination with Taxotere, 4-6 weeks): higher survival rate; effect of the combination in cancer refractory to chemotherapy (L3.6 pL pancreatic tumor; combination with Taxotere, tumor cells resistant to Taxotere (MDR cells)): synergistic effect; expression of phosphorylated PDGF-R on endothelial cells (L3.6 pL pancreatic tumor; single oral dose, organs harvested two days later): inhibited; induction of apoptosis (MV4-11 and MOLM-13 cells): induce apoptosis; IC50 (FGF-R4): > 10000 nM; FLT3-ITD phosphorylation (FLT3-ITD): inhibited FLT3-ITD phosphorylation in a dose-dependent manner; IC50 (Src): 3600 nM; resistance of organ-specific endothelial cells to Taxotere increased by pancreatic tumor-conditioned medium [5]: reversal of this increased resistance; sensitivity of endothelial cells to cytotoxicity mediated by Taxotere ([5]; cells at 33° C.): increases sensitivity of endothelial cells to cytotoxicity mediated by Taxotere; IC50 (IGF1-R): > 10000 nM; effect on MV4-11 cell growth (MV4-11 cells (FLT3-ITD); 72 hours, luminescence assay, FIG. 1): inhibits MV4-11 cell growth in a dose dependent manner; IC50 (MV4-11 cells (FLT3-ITD); Homo sapiens, MV4-11, 72 h with inhibitor, Cell Titer-Glo, range stated for MV4-11 and MOLM-13 together, read-out: IC50, inhibition of cellular proliferation): 0.7 to 2 µM; large infiltrating cells with mitotic figures in bone marrow (MV4;11 cells; H&E-stained sections, oral 50-200 mg/kg): reduced numbers of large infiltrating cells with mitotic figures; CD45 positive cells in bone marrow (MV4;11 cells; flow cytometry, oral 50-200 mg/kg): reduced numbers of CD45 positive cells; survival (MV4;11 cells; oral, 50-200 mg/kg, once daily or 3 times per week): prolonged survival; IC50 (FGR): 17000 nM

Question: With “cis-4-(6,7-dimethoxy-quinoxalin-2-ylamino)-cyclohexanol sulfate [Cis-isomer]” as the compound, how does the IC50 (Abl-1) read?
Answer: 4400 nM

Question: And the IC50 (Flt-3)?
Answer: > 10000 nM

Question: And the IC50 (Eph-B4)?
Answer: > 10000 nM

Question: What about the IC50 (VEGF-R1) of the same compound?
Answer: > 10000 nM

Question: And the IC50 (Ins-R)?
Answer: > 10000 nM

Question: And the IC50 (Kit)?
Answer: 6100 nM

Question: What about the IC50 (EGF-R) of the same compound?
Answer: > 10000 nM

Question: What about the IC50 (Lck) of the same compound?
Answer: 7500 nM

Question: And the IC50 (Irak)?
Answer: > 10000 nM

Question: And the IC50 (Met)?
Answer: 10000 nM

Question: What about the IC50 (FGF-R1) of the same compound?
Answer: > 10000 nM

Question: And the IC50 (Brk)?
Answer: 5700 nM

Question: What about the IC50 (FGF-R4) of the same compound?
Answer: > 10000 nM

Question: And the IC50 (Src)?
Answer: 3200 nM

Question: What about the IC50 (PDGFRa) of the same compound?
Answer: 1400 nM

Question: What about the IC50 (IGF1-R) of the same compound?
Answer: > 10000 nM

Question: And the IC50 (PDGFRb)?
Answer: 2200 nM

Question: What about the IC50 (FGR) of the same compound?
Answer: 4600 nM
